# Results from US5593985A, “Cephalosporin compounds” (priority 1994, dated 1997).
# Where two headings read alike, the source gives them in different places.
# Tests used:
# [1] = test system: Streptococcus pyogenes A 77; assay: MIC, standard strain 2; format: cell-based; details: A77, S. pyogenes A 77, two-fold dilution, Muller Hinton agar, 10^7 CFU/ml, 37° C., 18 hours, read-out: Minimal Inhibitory Concentration(MIC)
# Protocol: (§1) In order to illustrate antibiotic effectiveness of the compounds of the present invention, the minimal inhibitory concentrations (MIC's) of the representative compounds were determined against standard strains and compared with ceftazidime and cefpirome, which were used as control compounds.
# (§2) The MIC values were taken by employing a two-fold dilution method: that is, two-fold serial dilutions of each of the test compounds were made from initial concentration of […]; each 1.5 ml of them was dispersed in 13.5 ml of Muller Hinton agar medium to adjust to […]; the standard test strain which had the concentration of 10^7 CFU/ml was inoculated by medium;and these were incubated at 37° C. for 18 hours.
# (§3) The test used twenty kinds of standard test strains which induced urinary tract infections, respiratory organ infections, skin soft tissue infections, plasma infections, gastrointestinal infections, central nervous system infections, most of which produce β-lactamase. The standard test strains used are as follows:
# 2. Streptococcus pyogenes A 77
# [2] = test system: Staphylococcus aureus 503; assay: MIC, standard strain 6; format: cell-based; details: Staphylococcus aureus; S. aureus 503; two-fold dilution, Muller Hinton agar, 10^7 CFU/ml, 37° C., 18 hours; read-out: Minimal Inhibitory Concentration(MIC)
# Protocol: as §1, §2, §3
# 6. Staphylococcus aureus 503
# [3] = test system: Escherichia coli TEM; assay: MIC, standard strain 10; format: cell-based; details: 18 h, read-out: Minimal Inhibitory Concentration(MIC)
# Protocol: as §1, §2
# (§4) The test used twenty kinds of standard test strains which induced urinary tract infections, respiratory organ infections, skin soft tissue infections, plasma infections, gastrointestinal infections, central nervous system infections, most of which produce β-lactamase.
# [4] = test system: Escherichia coli 1507 E; assay: MIC, standard strain 11; format: cell-based; details: E. coli 1507 E, two-fold dilution, Muller Hinton agar, 10^7 CFU/ml, 37° C., 18 hours, read-out: Minimal Inhibitory Concentration(MIC)
# Protocol: as §1, §2, §4
# [5] = test system: Pseudomonas aeruginosa 1771; assay: MIC, standard strain 14; format: cell-based; details: Pseudomonas aeruginosa; P. aeruginosa 1771; two-fold dilution, Muller Hinton agar, 10^7 CFU/ml, 37° C., 18 hours; read-out: Minimal Inhibitory Concentration(MIC)
# Protocol: as §1, §2, §3
# 14. Pseudomonas aeruginosa 1771
# [6] = test system: Salmonella typhimurium; assay: MIC, standard strain 16; format: cell-based; details: Salmonella enterica; S. typhimurium; two-fold dilution, Muller Hinton agar, 10^7 CFU/ml, 37° C., 18 hours; read-out: Minimal Inhibitory Concentration(MIC)
# Protocol: as §1, §2, §3
# 16. Salmonella typhimurium
# [7] = test system: Klebsiella aerogenes 1552 E; assay: MIC, standard strain 18; format: cell-based; details: K. aerogenes 1552 E, two-fold dilution, Muller Hinton agar, 10^7 CFU/ml, 37° C., 18 hours, read-out: Minimal Inhibitory Concentration(MIC)
# Protocol: as §1, §2, §3
# 18. Klebsiella aerogenes 1552 E
# [8] = test system: D Streptococcus I; assay: MIC, clinically separated strains; format: cell-based; details: 18 h; for MIC50 / MIC90: 20 clinical strains; for MIC: read-out: range of MIC, 20 clinical strains
# Protocol: as §2
# [9] = test system: Enterobactercloacas; assay: MIC, clinically separated strains; format: cell-based; details: Enterobacter cloacae, 18 h, 20 clinical strains; for MIC: read-out: range of MIC
# Protocol: as §2
# [10] = test system: Enterococcus II; assay: MIC, clinically separated strains; format: cell-based; details: 18 h; for MIC50 / MIC90: 20 clinical strains; for MIC: read-out: range of MIC, 20 clinical strains
# Protocol: as §2
# [11] = test system: Enterococcus I; assay: MIC, clinically separated strains; format: cell-based; details: 18 h; for MIC50 / MIC90: 20 clinical strains
# Protocol: as §2
# [12] = test system: Escherichia coli; assay: MIC, clinically separated strains; format: cell-based; details: 18 h; for MIC50 / MIC90: 20 clinical strains; for MIC: read-out: range of MIC, 20 clinical strains
# Protocol: as §2
# [13] = test system: Klebsiella oxytoca; assay: MIC, clinically separated strains; format: cell-based; details: 18 h; for MIC50 / MIC90: 20 clinical strains; for MIC: read-out: range of MIC, 20 clinical strains
# Protocol: as §2
# [14] = test system: MRSA(KAIST); assay: MIC, clinically separated strains; format: cell-based; details: Staphylococcus aureus, 18 h; for MIC50 / MIC90: 15 clinical strains; for MIC: read-out: range of MIC, 15 clinical strains
# Protocol: as §2
# [15] = test system: Methicillin Resistant; assay: MIC, clinically separated strains; format: cell-based; details: 18 h, 19 clinical strains; for MIC: read-out: range of MIC
# Protocol: as §2
# [16] = test system: Morganella morganii; assay: MIC, clinically separated strains; format: cell-based; details: 18 h; for MIC50 / MIC90: 5 clinical strains; for MIC: read-out: range of MIC, 5 clinical strains
# Protocol: as §2
# [17] = test system: Proteus mirabilis; assay: MIC, clinically separated strains; format: cell-based; details: 18 h; for MIC50 / MIC90: 4 clinical strains; for MIC: read-out: range of MIC, 4 clinical strains
# Protocol: as §2
# [18] = test system: Proteus vulgaris; assay: MIC, clinically separated strains; format: cell-based; details: 18 h; for MIC50 / MIC90: 5 clinical strains; for MIC: read-out: range of MIC, 5 clinical strains
# Protocol: as §2
# [19] = test system: Providencia rettgeri; assay: MIC, clinically separated strains; format: cell-based; details: 18 h; for MIC: read-out: range of MIC, 6 clinical strains
# Protocol: as §2
# [20] = test system: Pseudomonas II; assay: MIC, clinically separated strains; format: cell-based; details: 18 h; for MIC: read-out: range of MIC
# Protocol: as §2
# [21] = test system: Pseudomonas aeruginosa; assay: MIC, clinically separated strains; format: cell-based; details: 18 h; for MIC50 / MIC90: 20 clinical strains; for MIC: read-out: range of MIC, 20 clinical strains
# Protocol: as §2
# [22] = test system: Serratia spp; assay: MIC, clinically separated strains; format: cell-based; details: 18 h; for MIC50 / MIC90: 20 clinical strains; for MIC: read-out: range of MIC, 20 clinical strains
# Protocol: as §2
# [23] = test system: D StreptococcusII; assay: MIC, clinically separated strains; format: cell-based, D Streptococcus; details: Streptococcus, 18 h; for MIC: read-out: range of MIC
# Protocol: as §2
# [24] = test system: MRSA(Yonsei Univ.); assay: MIC, clinically separated strains; format: cell-based; parameters: range of MIC: unit not given here
# Protocol: as §2
# [25] = test system: Streptococcus I; assay: MIC, clinically separated strains; format: cell-based; parameters: range of MIC: unit not given here; details: 20 clinical strains; for MIC50 / MIC90: Streptococcus, 18 h
# Protocol: as §2
# [26] = Staphylococcus aureus, MRSA, 18 h, 17 clinical strains
compound,measurement,setting,value
CO/N=C(\C(=O)N[C@@H]1C(=O)N2C(C(=O)[O-])=C(C[n+]3ccc(C(N)=O)c4c3CCC4)CS[C@H]12)c1csc(N)n1 [Example 3],MIC,[1],2 µg/mL
same,MIC,[2],391 µg/mL
same,MIC,[3],49 µg/mL
same,MIC,[4],25 µg/mL
same,MIC,[5],391 µg/mL
same,MIC,[6],25 µg/mL
same,MIC,[7],25 µg/mL
same,MIC50,[8],12.5 µg/mL
same,MIC90,[8],25 µg/mL
same,MIC,[8],12.5 to 100 µg/mL
same,MIC,[9],0.013 to 1.56 µg/mL
same,MIC50,[9],0.025 µg/mL
same,MIC90,[9],0.049 µg/mL
same,MIC50,[10],0.025 µg/mL
same,MIC90,[10],1.56 µg/mL
same,MIC,[10],0.007 to 3.12 µg/mL
same,MIC50,[11],0.025 µg/mL
same,MIC90,[11],0.049 µg/mL
same,MIC,"[11]; read-out: range of MIC, 20 clinical strains",0.013 to 0.195 µg/mL
same,MIC50,[12],0.025 µg/mL
same,MIC90,[12],0.049 µg/mL
same,MIC,[12],0.025 to 0.391 µg/mL
same,MIC50,[13],0.013 µg/mL
same,MIC90,[13],0.098 µg/mL
same,MIC,[13],0.007 to 0.391 µg/mL
same,MIC50,[14],6.25 µg/mL
same,MIC90,[14],50 µg/mL
same,MIC,[14],0.781 to 100 µg/mL
same,MIC,[15],0.781 to 100 µg/mL
same,MIC50,[15],6.25 µg/mL
same,MIC90,[15],50 µg/mL
same,MIC50,[16],0.013 µg/mL
same,MIC90,[16],0.025 µg/mL
same,MIC,[16],0.013 to 0.025 µg/mL
same,MIC50,[17],0.013 µg/mL
same,MIC90,[17],0.049 µg/mL
same,MIC,[17],0.007 to 0.049 µg/mL
same,MIC50,[18],0.025 µg/mL
same,MIC90,[18],0.098 µg/mL
same,MIC,[18],0.025 to 0.098 µg/mL
same,MIC50,[19]; 6 clinical strains,0.013 µg/mL
same,MIC90,[19]; 6 clinical strains,0.049 µg/mL
same,MIC,[19],0.004 to 0.098 µg/mL
same,MIC50,[20],1.56 µg/mL
same,MIC90,[20],6.25 µg/mL
same,MIC,[20],0.781 to 12.5 µg/mL
same,MIC50,[21],3.12 µg/mL
same,MIC90,[21],6.25 µg/mL
same,MIC,[21],0.781 to 12.5 µg/mL
same,MIC50,[22],0.025 µg/mL
same,MIC90,[22],0.049 µg/mL
same,MIC,[22],0.025 to 0.049 µg/mL
same,MIC,[23]; 19 clinical strains,6.25 to 100 µg/mL
same,MIC50,[23]; 19 clinical strains,25 µg/mL
same,MIC90,[23]; 19 clinical strains,100 µg/mL
same,"antibiotic activities against MRSA(Yonsei Univ.), in words",[24],unexpectedly potent antibiotic activities
same,range of MIC,[24]; 17 clinical strains,0.013-100.000
same,MIC50,[24]; [26],12.5 µg/mL
same,MIC90,[24]; [26],100 µg/mL
same,range of MIC,[25],0.007-25.000
same,MIC50,[25],0.025 µg/mL
same,MIC90,[25],12.5 µg/mL
"CO/N=C(\C(=O)N[C@@H]1C(=O)N2C(C(=O)[O-])=C(C[n+]3cccc4c3CCC4)CS[C@H]12)c1csc(N)n1 [cefpirome, reference compound]",MIC,[1],98 µg/mL
same,MIC,[2],13 µg/mL
same,MIC,[3],49 µg/mL
same,MIC,[4],75 µg/mL
same,MIC,[5],391 µg/mL
same,MIC,[6],25 µg/mL
same,MIC,[7],25 µg/mL
same,MIC50,[8],25 µg/mL
same,MIC90,[8],50 µg/mL
same,MIC,[8],12.5 to 100 µg/mL
same,MIC,[9],0.013 to 1.56 µg/mL
same,MIC50,[9],0.025 µg/mL
same,MIC90,[9],0.098 µg/mL
same,MIC50,[10],0.049 µg/mL
same,MIC90,[10],1.56 µg/mL
same,MIC,[10],0.007 to 3.12 µg/mL
same,MIC50,[11],0.025 µg/mL
same,MIC90,[11],0.098 µg/mL
same,MIC,[11]; read-out: range of MIC,0.013 to 0.195 µg/mL
same,MIC50,[12],0.025 µg/mL
same,MIC90,[12],0.049 µg/mL
same,MIC,[12],0.025 to 0.391 µg/mL
same,MIC50,[13],0.025 µg/mL
same,MIC90,[13],0.781 µg/mL
same,MIC,[13],0.007 to 0.391 µg/mL
same,MIC50,[14],12.5 µg/mL
same,MIC90,[14],100 µg/mL
same,MIC,[14],0.781 to 100 µg/mL
same,MIC,[15],0.781 to 100 µg/mL
same,MIC50,[15],12.5 µg/mL
same,MIC90,[15],100 µg/mL
same,MIC50,[16],0.013 µg/mL
same,MIC90,[16],0.025 µg/mL
same,MIC,[16],0.013 to 0.025 µg/mL
same,MIC50,[17],0.013 µg/mL
same,MIC90,[17],0.049 µg/mL
same,MIC,[17],0.007 to 0.049 µg/mL
same,MIC50,[18],0.049 µg/mL
same,MIC90,[18],0.098 µg/mL
same,MIC,[18],0.025 to 0.098 µg/mL
same,MIC,[19],0.004 to 0.098 µg/mL
same,MIC50,[20],1.56 µg/mL
same,MIC90,[20],6.25 µg/mL
same,MIC,[20],0.781 to 12.5 µg/mL
same,MIC50,[21],3.12 µg/mL
same,MIC90,[21],12.5 µg/mL
same,MIC,[21],0.781 to 12.5 µg/mL
same,MIC50,[22],0.049 µg/mL
same,MIC90,[22],0.098 µg/mL
same,MIC,[22],0.025 to 0.049 µg/mL
same,MIC,[23],6.25 to 100 µg/mL
same,MIC50,[23]; 19 clinical strains,50 µg/mL
same,MIC90,[23]; 19 clinical strains,100 µg/mL
same,"antibiotic activities against MRSA(Yonsei Univ.), in words",[24],shows resistance to cefpirome
same,MIC,"[24]; Staphylococcus aureus, MRSA, 18 h, read-out: range of MIC, 17 clinical strains",100 µg/mL
same,MIC50,[24]; [26],100 µg/mL
same,MIC90,[24]; [26],100 µg/mL
same,MIC50,[25],0.025 µg/mL
same,MIC90,[25],12.5 µg/mL
